Legend:
[1] = biological target: T1, A2 receptors of platelets (Homo sapiens, UniProt P29274); assay: antagonism of NECA-induced stimulation of adenylate cyclase activity of human platelet membranes; format: biochemical; details: for antagonist potency at the platelet A2 receptor: NECA-induced stimulation of adenylate cyclase, human platelet membranes, result in words
T1 construct: NECA-induced stimulation of adenylate cyclase activity of human platelet membranes; from tissue; host or cells: human platelet membranes
T1 sequence (P29274 whole entry): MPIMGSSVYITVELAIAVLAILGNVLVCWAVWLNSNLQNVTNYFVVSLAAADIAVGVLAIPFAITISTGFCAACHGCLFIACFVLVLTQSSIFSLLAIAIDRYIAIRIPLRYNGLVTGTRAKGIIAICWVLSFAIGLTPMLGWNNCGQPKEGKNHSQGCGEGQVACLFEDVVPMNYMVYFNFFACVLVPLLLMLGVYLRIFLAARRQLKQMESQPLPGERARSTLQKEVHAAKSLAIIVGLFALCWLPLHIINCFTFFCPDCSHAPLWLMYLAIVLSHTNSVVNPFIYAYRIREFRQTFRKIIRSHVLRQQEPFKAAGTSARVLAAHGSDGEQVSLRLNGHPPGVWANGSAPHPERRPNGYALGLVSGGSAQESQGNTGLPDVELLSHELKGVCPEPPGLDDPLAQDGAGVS
Experimental: (§1) Human platelet, rat pheochromocytoma (PC12) cell, rat fat cell and rat cerebral cortex membranes were prepared as described (4,5,6). Adenylate cyclase activity and binding of [^3H]PIA to cerebral cortex membranes were determined essentially as described (4,5,6).
(§2) KB values for the compounds were determined as described (4). […] EC50 and IC50 values for the agonists were obtained from the concentration-response curves by linear regression after logit-log transformation. KB values of the antagonists were calculated using the Schild equation KB = C/(CR-1), where C denotes the concentration of the competitor and CR the ratio of the EC50 and IC50 values in the presence and absence, respectively, of the competitor. IC50 of the compounds for inhibition of [^3H]PIA binding to cerebral cortex membranes were transformed into Ki values as described (6).
In these cells, A2 receptor-mediated stimulation of adenylate cyclase results in an inhibition of aggregation (5,7).

[2] = biological target: T2, A2 receptors of rat pheochromocytoma (PC12) cells (Rattus norvegicus, UniProt P30543); assay: antagonism of NECA-induced stimulation of adenylate cyclase activity of PC12 cell membranes; format: biochemical; details: NECA-stimulated adenylate cyclase, result in words
T2 construct: NECA-induced stimulation of adenylate cyclase activity of the PC12 cells membranes; endogenous in cells; host or cells: rat pheochromocytoma PC12 cell membranes
T2 sequence (P30543 whole entry): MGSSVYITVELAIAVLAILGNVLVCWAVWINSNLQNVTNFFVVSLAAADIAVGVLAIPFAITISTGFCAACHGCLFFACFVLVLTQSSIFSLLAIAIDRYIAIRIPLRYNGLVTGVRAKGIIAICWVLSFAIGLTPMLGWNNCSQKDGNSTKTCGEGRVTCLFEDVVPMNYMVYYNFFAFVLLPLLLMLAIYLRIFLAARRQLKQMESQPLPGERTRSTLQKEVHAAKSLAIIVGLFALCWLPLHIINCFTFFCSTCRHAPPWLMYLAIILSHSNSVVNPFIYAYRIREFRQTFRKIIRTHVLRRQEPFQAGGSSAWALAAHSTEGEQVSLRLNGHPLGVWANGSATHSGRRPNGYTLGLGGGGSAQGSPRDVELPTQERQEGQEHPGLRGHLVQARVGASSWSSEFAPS
Experimental: as §1, §2

fat cell A1 receptor = biological target: T3, fat cell A1 receptor (Rattus norvegicus, UniProt P25099); assay: antagonism of R-PIA-induced inhibition of isoproterenol-stimulated adenylate cyclase activity in fat cell membranes; format: biochemical; details: result in words
T3 construct: from tissue; host or cells: rat fat cell membranes
T3 sequence (P25099 1-326): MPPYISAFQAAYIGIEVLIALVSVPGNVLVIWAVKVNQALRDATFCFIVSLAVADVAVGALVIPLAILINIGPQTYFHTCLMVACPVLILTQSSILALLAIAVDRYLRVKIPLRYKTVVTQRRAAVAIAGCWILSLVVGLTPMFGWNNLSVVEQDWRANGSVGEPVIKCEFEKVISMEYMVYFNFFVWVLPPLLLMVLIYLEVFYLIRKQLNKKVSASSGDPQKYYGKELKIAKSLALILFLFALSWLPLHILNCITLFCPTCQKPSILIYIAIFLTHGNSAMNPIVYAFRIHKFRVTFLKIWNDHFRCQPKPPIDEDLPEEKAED
Experimental: as §1, §2

A1 receptors = biological target: T4, A1 receptors (Rattus norvegicus, UniProt P25099); assay: inhibition of [^3H]PIA binding to rat cerebral cortex membranes; details: result in words
T4 construct: from tissue; host or cells: rat cerebral cortex membranes
T4 sequence (P25099 1-326): T3 sequence (P25099 1-326)
Experimental: as §1, §2

A1 or A2 receptors [3] = biological target: T5, A1 or A2 receptors (Rattus norvegicus, UniProt P25099); assay: comparison of activity across the A1 and A2 adenosine receptor systems (discussion); format: biochemical; details: test system not specified
T5 sequence (P25099 1-326): T3 sequence (P25099 1-326)
Experimental: as §1, §2

A2-adenosine receptors = assay: antagonism of adenosine agonists' decrease in contractile tone of guinea pig taenia caecum; format: cell-based; details: result in words
Experimental: The tissues were suspended in a 20 ml organ bath containing de Jalon's solution that was gassed with 95% O2 + 5% CO2 and maintained at 31°C. The resting tension was 1.5 g. The contractile response was measured isotonically.
(§3) The ability of the compounds to antagonize the effects of agonists was analyzed using modified Schild plots.

A1 adenosine receptor = biological target: T6, A1 adenosine receptor (Cavia porcellus, UniProt P47745); assay: antagonism of adenosine agonists' reduction in force of contraction of guinea pig atrium; format: cell-based; details: for antagonism at adenosine receptors in the atria / basal force of contraction in the atria: guinea pig atria; for antagonism at adenosine receptors in the atria: result in words
T6 construct: The left atria from male guinea pigs were isolated; from tissue; host or cells: isolated guinea pig left atrium
T6 sequence (P47745 1-326): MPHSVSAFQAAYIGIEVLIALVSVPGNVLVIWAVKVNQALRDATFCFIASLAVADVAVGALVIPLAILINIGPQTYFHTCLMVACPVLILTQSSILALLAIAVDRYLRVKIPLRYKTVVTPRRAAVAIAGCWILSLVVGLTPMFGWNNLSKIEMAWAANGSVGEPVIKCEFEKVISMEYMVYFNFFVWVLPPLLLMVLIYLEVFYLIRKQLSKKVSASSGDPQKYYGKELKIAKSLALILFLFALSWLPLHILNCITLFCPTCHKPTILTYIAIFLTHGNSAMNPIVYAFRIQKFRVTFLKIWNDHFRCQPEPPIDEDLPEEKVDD
Experimental: The left atria from male guinea pigs were isolated, suspended between two punctate electrodes, and placed in a 20 ml organ bath that contained Krebs-Hensileit solution that was continuously gassed with 95% O2 + 5% CO2 and maintained at 31°C. The resting tension was one gram. Theatria were stimulated electrically at 1 hz, 1 ms duration pulses at supramaximal voltage. The force of contraction was recorded isometrically.
as §3

[4] = system: heart rate and blood pressure; assay: in vivo heart rate and blood pressure in anesthetized rats after adenosine or NECA; details: urethan-anesthetized rats
From the text: Drug injections were made intravenously through a jugular cannula.

A1 or A2 receptors [5] = assay: comparison of activity across the A1 and A2 adenosine receptor systems (discussion); format: biochemical; details: result in words
Experimental: as §1, §2

[6] = affinity constants, guinea pig left atria, modified Schild plots

Cn1cnc2c(NCCc3ccsc3)ncnc21 [Example 15, N^6-2-(3-thienylethyl)-9-methyladenine]
antagonist potency at the platelet A2 receptor [1]: somewhat more potent

Cn1cnc2c(Nc3ccccc3)ncnc21 [Example 9, N^6-Phenyl-9-MA]
antagonist potency at the platelet A2 receptor [1]: equipotent to 9-methyladenine
antagonist potency at the A2 receptor of PC12 cells [2]: more potent at the platelet A2 receptor than at the PC12 A2 receptor
antagonistic potency at the fat cell A1 receptor (fat cell A1 receptor): more potent than 9-methyladenine

C[C@@H](Cc1ccccc1)Nc1ncnc2c1ncn2C [Example 17, N^6-S-1-Phenyl-2-propyl-9-MA]
antagonistic potency at the fat cell A1 receptor (fat cell A1 receptor): more potent than the parent compound

C[C@H](Cc1ccccc1)Nc1ncnc2c1ncn2C [Example 16, N^6-R-1-Phenyl-2-propyl-9-MA]
antagonist potency at the platelet A2 receptor [1]: more potent than the S-isomer
antagonistic potency at the fat cell A1 receptor (fat cell A1 receptor): more potent than the parent compound
Ki-values for inhibition of [^3H]PIA binding (A1 receptors): more potent than the S-isomer

Cn1cnc2c(NC3(C)CCCC3)ncnc21 [Example 5, N^6-1-methylcyclopentyl-9-methyladenine]
antagonist potency at the platelet A2 receptor [1]: less potent than the parent cyclopentyl analog
antagonist potency at the A2 receptor of PC12 cells [2]: reduces potency
antagonistic potency at the fat cell A1 receptor (fat cell A1 receptor): less potent than the N^6-cyclopentyl analog
activity at A1 receptors (A1 or A2 receptors [3]): reduces activity at A1 receptors

Cn1cnc2c(NC3CCCCC3)ncnc21 [Example 6, N^6-Cyclohexyl-9-MA]
antagonist potency at the platelet A2 receptor [1]: more potent than 9-methyladenine itself
antagonistic potency at the fat cell A1 receptor (fat cell A1 receptor): more potent than the parent compound
activity at A1 receptors (A1 or A2 receptors [3]): the most potent of N^6-substituted 9-methyladenines at A1 receptors

CNc1ncnc2c1ncn2C [Example 7, N^6-Methyl-9-MA]
antagonist potency at the platelet A2 receptor [1]: much less potent than 9-methyladenine
antagonistic potency at the fat cell A1 receptor (fat cell A1 receptor): less potent than 9-methyladenine

COc1cc(CCNc2ncnc3c2ncn3C)cc(OC)c1OC [Example 13, N^6-2-(3,4,5-trimethoxyphenylethyl)-9-methyladenine]
antagonist potency at the platelet A2 receptor [1]: as potent as 9-methyladenine
Ki-values for inhibition of [^3H]PIA binding (A1 receptors): very weak antagonists

Cn1cnc2c(NCCc3cccnc3)ncnc21 [Example 14, N^6-2-(3-pyridylethyl)-9-methyladenine]
antagonist potency at the platelet A2 receptor [1]: less potent than 9-methyladenine

Cn1cnc2c(NCCc3ccsc3)ncnc21 [N^6-2-(3-thienylethyl)-9-methyladenine]
antagonistic potency at the fat cell A1 receptor (fat cell A1 receptor): more potent than 9-methyladenine itself

Cn1c(=O)c2[nH]c(-c3ccccc3)nc2n(C)c1=O [Example 8-PT, 8-phenyltheophylline, reference compound]
antagonism of the effects of adenosine agonists in relaxing the taenia caecum (A2-adenosine receptors): did antagonize the effects of agonists at low concentrations

Cn1cnc2c(NC3CCCC3)ncnc21 [Example 4, N^6-cyclopentyl-9-methyladenine]
antagonist potency at the platelet A2 receptor [1]: more potent than 9-methyladenine itself
antagonist potency at the A2 receptor of PC12 cells [2]: more potent at the platelet A2 receptor than at the PC12 A2 receptor
antagonistic potency at the fat cell A1 receptor (fat cell A1 receptor): more potent than the parent compound
Ki-values for inhibition of [^3H]PIA binding (A1 receptors): more potent than the N^6-methylcyclopentyl analog
Kb (A1 adenosine receptor; [6]): 0.676 µM
antagonism at adenosine receptors in the atria (A1 adenosine receptor): competitive antagonists
antagonism of the effects of adenosine agonists in relaxing the taenia caecum (A2-adenosine receptors): did not competitively antagonize
activity at A1 receptors (A1 or A2 receptors [3]): the most potent of N^6-substituted 9-methyladenines at A1 receptors

N^6-4-(-2-thienyl) -3-butyl) -9-MA [Example 23]
pKB (A1 adenosine receptor; [6]): 5.36 ± 0.1
basal force of contraction in the atria (A1 adenosine receptor): produced increases
antagonism at adenosine receptors in the atria (A1 adenosine receptor): competitive antagonists

Cn1cnc2c(N)ncnc21 [Example 2, 9-methyladenine, reference compound]
antagonist potency at the platelet A2 receptor [1]: more potent than the adenine itself
antagonist potency at the A2 receptor of PC12 cells [2]: equally potent at A2 receptors of human platelets and rat PC12 cells
antagonistic potency at the fat cell A1 receptor (fat cell A1 receptor): antagonizes the effect of R-PIA
Ki-values for inhibition of [^3H]PIA binding (A1 receptors): equally potent at A1 receptors of fat cells and cerebral cortex

Cn1cnc2c(NCc3ccccc3)ncnc21 [Example 11, N^6-benzyl-9-methyladenine]
antagonist potency at the platelet A2 receptor [1]: less potent than 9-methyladenine
activity at A1 receptors (A1 or A2 receptors [3]): modest activity

Cn1cnc2c(NC3CCC3)ncnc21 [Example 3, N^6-Cyclobutyl-9-MA]
antagonist potency at the platelet A2 receptor [1]: more potent than 9-methyladenine itself
antagonistic potency at the fat cell A1 receptor (fat cell A1 receptor): more potent than the parent compound
activity at A1 receptors (A1 or A2 receptors [3]): the most potent of N^6-substituted 9-methyladenines at A1 receptors

Cn1cnc2c(N[C@@H]3C[C@@H]4CC[C@H]3C4)ncnc21 (relative stereo) [N^6-(endonorbornyl)-9-methyladenine]
effects of subsequently administered adenosine on blood pressure, heart rate and P-R interval ([4]; intravenous): attenuated
heart block caused by adenosine at high doses ([4]; intravenous): substantially reduced

Cn1cnc2c(NCCc3ccccc3)ncnc21 [Example 12, N^6-2-Phenethyl-9-MA]
antagonist potency at the platelet A2 receptor [1]: less potent than 9-methyladenine
antagonistic potency at the fat cell A1 receptor (fat cell A1 receptor): much less potent
Ki-values for inhibition of [^3H]PIA binding (A1 receptors): very weak antagonists

COc1cc(CCNc2ncnc3c2ncn3C)cc(OC)c1OC
selectivity for A1 or A2 receptors (A1 or A2 receptors [5]): selectivity for A2 receptors

Cn1cnc2c(Nc3ccccc3F)ncnc21 [Example 10, N^6-2-Fluorophenyl-9-MA]
antagonist potency at the platelet A2 receptor [1]: increases potency
antagonistic potency at the fat cell A1 receptor (fat cell A1 receptor): more potent than 9-methyladenine

CCC(CC)Nc1ncnc2c1ncn2C [Example 8, N^6-3-pentyl-9-methyladenine]
antagonist potency at the platelet A2 receptor [1]: more potent
antagonist potency at the A2 receptor of PC12 cells [2]: more potent at the platelet A2 receptor than at the PC12 A2 receptor
antagonistic potency at the fat cell A1 receptor (fat cell A1 receptor): more potent than the parent compound
Kb (A1 adenosine receptor; [6]): 3.98 µM
basal force of contraction in the atria (A1 adenosine receptor): produced increases
antagonism at adenosine receptors in the atria (A1 adenosine receptor): competitive antagonists
antagonism of the effects of adenosine agonists in relaxing the taenia caecum (A2-adenosine receptors): did not competitively antagonize

Nc1ncnc2nc[nH]c12 [Example 1, Adenine, reference compound]
antagonist potency at the platelet A2 receptor [1]: very weak antagonist
basal adenylate cyclase activity ([1]; human platelets, data not shown): does not affect
antagonist potency at the A2 receptor of PC12 cells [2]: very weak antagonist
antagonistic potency at the fat cell A1 receptor (fat cell A1 receptor): does not affect
Ki-values for inhibition of [^3H]PIA binding (A1 receptors): low potency

Cn1cnc2c(N[C@H]3C[C@H]4CC[C@@H]3C4)ncnc21 (relative stereo) [Example 22, N^6-(endonorbornyl)-9-methyladenine]
antagonism at adenosine receptors in the atria (A1 adenosine receptor): competitive antagonists
antagonism at adenosine receptors in the atria (A1 adenosine receptor; listed as Ex. 22): the most potent antagonist
antagonism of the effects of adenosine agonists in relaxing the taenia caecum (A2-adenosine receptors): did not competitively antagonize
NECA-induced decrease in blood pressure ([4]; prior administration): minimally affecting
effects of NECA on the heart ([4]; prior administration): attenuated
